What was measured:
S. pneumoniae D39V [1] = assay: fitness (endpoint OD595 vs no drug) (fraction); higher = more growth
How it was run: (§1)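 Each well of a 384-well plate received 30 µl of culture at OD595 0.01, or 55 µl for S. pneumoniae. TSB, LB Lennox or CY served as media at 37 °C. OD595 was taken every 30 min for 14 h and corrected by subtracting the first reading. Fitness is the optical density at stationary-phase entry divided by the robust mean of no-drug controls, capped at 1.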

S. aureus DSM 20231 [2] = assay: as above
How it was run: as §1

B. subtilis 168 = assay: Bliss interaction score (quartile over a dose matrix) (fitness difference); higher = more antagonism (negative = synergy)
How it was run: (§2)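 Fitness is OD595 at stationary-phase entry relative to the plate's robust no-drug mean, capped at 1. Single-drug fitness was inferred from combinations. The Bliss score is observed minus product-expected fitness, summarised by quartiles over technical, biological and donor/recipient replicates.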

S. pneumoniae D39V [3] = assay: as above
How it was run: as §2

S. aureus DSM 20231 [4] = assay: as above
How it was run: as §2

S. aureus Newman [5] = assay: as above
How it was run: as §2

S. aureus Newman [6] = assay: fitness (endpoint OD595 vs no drug) (fraction); higher = more growth; conditions: partner 75 µg/mL, main component drawn
How it was run: as §1
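Throughout, for Bliss interaction score (quartile over a dose matrix): first quartile when negative (synergy) and third quartile when positive (antagonism).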

CC1(C)S[C@@H]2[C@H](NC(=O)[C@H](N)c3ccc(O)cc3)C(=O)N2[C@H]1C(=O)O [Amoxicillin] + CCC[C@@H]1C[C@@H](C(=O)N[C@@H]([C@H]2O[C@H](SC)[C@H](O)[C@@H](O)[C@H]2O)[C@@H](C)O)N(C)C1 [Lincomycin]
fitness, S. pneumoniae D39V [1], one replicate
Conditions | partner 0.2 µg/mL | partner 0.4 µg/mL | partner 0.8 µg/mL
first compound 0.0008 µg/mL | 0.878 | 0.489 | 0.393
first compound 0.006 µg/mL | 0.484 | 0.216 | 0.143

fitness
Conditions | partner 0.1 µg/mL | partner 0.2 µg/mL | partner 0.215 µg/mL | partner 0.4 µg/mL | partner 0.43 µg/mL | partner 0.8 µg/mL | partner 0.86 µg/mL
S. aureus DSM 20231 [2], first compound 0.0625 µg/mL | 0.624 | 0.492 | – | 0.213 | – | – | –
S. aureus DSM 20231 [2], first compound 0.125 µg/mL | – | 0.358 | – | 0.129 | – | – | –
S. aureus DSM 20231 [2], first compound 0.25 µg/mL | 0.0334 | 0.0486 | – | 0.064 | – | – | –
S. aureus DSM 20231 [2], first compound 0.5 µg/mL | 0.0005 | 0.0261 | – | 0.0105 | – | – | –
S. pneumoniae D39V [1], first compound 0.0008 µg/mL | – | – | 0.838 | – | 0.739 | – | 0.409
S. pneumoniae D39V [1], first compound 0.0015 µg/mL | – | 0.847 | 0.878 | 0.54 | 0.744 | 0.312 | 0.437
S. pneumoniae D39V [1], first compound 0.003 µg/mL | – | 0.816 | 0.852 | 0.554 | 0.744 | 0.337 | 0.477

Conditions | Bliss interaction score
B. subtilis 168 | -0.0381
S. aureus DSM 20231 [4] | -0.0436
S. aureus Newman [5] | 0.117
S. pneumoniae D39V [3] | 0.227

CC1(C)S[C@@H]2[C@H](NC(=O)[C@H](N)c3ccc(O)cc3)C(=O)N2[C@H]1C(=O)O [Amoxicillin] + CC(=O)NC[C@H]1CN(c2ccc(N3CCOCC3)c(F)c2)C(=O)O1 [Linezolid]
Conditions | fitness
S. aureus DSM 20231 [2], first compound 0.0625 µg/mL, partner 0.125 µg/mL | 0.652
S. aureus DSM 20231 [2], first compound 0.0625 µg/mL, partner 0.25 µg/mL | 0.427
S. aureus DSM 20231 [2], first compound 0.0625 µg/mL, partner 0.5 µg/mL | 0.161
S. aureus DSM 20231 [2], first compound 0.125 µg/mL, partner 0.125 µg/mL | 0.368
S. aureus DSM 20231 [2], first compound 0.125 µg/mL, partner 0.25 µg/mL | 0.292
S. aureus DSM 20231 [2], first compound 0.125 µg/mL, partner 0.5 µg/mL | 0.0966
S. aureus DSM 20231 [2], first compound 0.25 µg/mL, partner 0.125 µg/mL | 0.129
S. aureus DSM 20231 [2], first compound 0.25 µg/mL, partner 0.25 µg/mL | 0.0329
S. aureus DSM 20231 [2], first compound 0.25 µg/mL, partner 0.5 µg/mL | 0.0469
S. pneumoniae D39V [1], first compound 0.0008 µg/mL, partner 0.105 µg/mL | 0.877
S. pneumoniae D39V [1], first compound 0.0008 µg/mL, partner 0.21 µg/mL | 0.724
S. pneumoniae D39V [1], first compound 0.0008 µg/mL, partner 0.42 µg/mL | 0.592
S. pneumoniae D39V [1], first compound 0.0015 µg/mL, partner 0.105 µg/mL | 0.84
S. pneumoniae D39V [1], first compound 0.0015 µg/mL, partner 0.2 µg/mL | 0.885
S. pneumoniae D39V [1], first compound 0.0015 µg/mL, partner 0.21 µg/mL | 0.784
S. pneumoniae D39V [1], first compound 0.0015 µg/mL, partner 0.4 µg/mL | 0.523
S. pneumoniae D39V [1], first compound 0.0015 µg/mL, partner 0.42 µg/mL | 0.578
S. pneumoniae D39V [1], first compound 0.0015 µg/mL, partner 0.8 µg/mL | 0.377
S. pneumoniae D39V [1], first compound 0.003 µg/mL, partner 0.105 µg/mL | 0.811
S. pneumoniae D39V [1], first compound 0.003 µg/mL, partner 0.2 µg/mL | 0.832
S. pneumoniae D39V [1], first compound 0.003 µg/mL, partner 0.21 µg/mL | 0.72
S. pneumoniae D39V [1], first compound 0.003 µg/mL, partner 0.4 µg/mL | 0.57
S. pneumoniae D39V [1], first compound 0.003 µg/mL, partner 0.42 µg/mL | 0.507
S. pneumoniae D39V [1], first compound 0.003 µg/mL, partner 0.8 µg/mL | 0.39

one replicate
Conditions | fitness
S. aureus DSM 20231 [2], first compound 0.0625 µg/mL, partner 1 µg/mL | 0.0145
S. aureus DSM 20231 [2], first compound 0.125 µg/mL, partner 1 µg/mL | 0.012
S. aureus DSM 20231 [2], first compound 0.25 µg/mL, partner 1 µg/mL | 0.0104
S. aureus DSM 20231 [2], first compound 0.5 µg/mL, partner 0.125 µg/mL | 0.0313
S. aureus DSM 20231 [2], first compound 0.5 µg/mL, partner 0.25 µg/mL | 0.0362
S. aureus DSM 20231 [2], first compound 0.5 µg/mL, partner 0.5 µg/mL | 0.032
S. pneumoniae D39V [1], first compound 0.0008 µg/mL, partner 0.2 µg/mL | 0.875
S. pneumoniae D39V [1], first compound 0.0008 µg/mL, partner 0.4 µg/mL | 0.648
S. pneumoniae D39V [1], first compound 0.0008 µg/mL, partner 0.8 µg/mL | 0.419
S. pneumoniae D39V [1], first compound 0.006 µg/mL, partner 0.2 µg/mL | 0.532
S. pneumoniae D39V [1], first compound 0.006 µg/mL, partner 0.4 µg/mL | 0.359
S. pneumoniae D39V [1], first compound 0.006 µg/mL, partner 0.8 µg/mL | 0.212

Conditions | Bliss interaction score
B. subtilis 168 | -0.0837
S. aureus DSM 20231 [4] | 0.0353
S. aureus Newman [5] | -0.0532
S. pneumoniae D39V [3] | 0.225

CC1(C)S[C@@H]2[C@H](NC(=O)[C@H](N)c3ccc(O)cc3)C(=O)N2[C@H]1C(=O)O [Amoxicillin] + CC[C@H](C)[C@H](N)C1=N[C@H](C(=O)N[C@@H](CC(C)C)C(=O)N[C@H](CCC(=O)O)C(=O)N[C@H](C(=O)N[C@H]2CCCCNC(=O)[C@H](CC(N)=O)NC(=O)[C@@H](CC(=O)O)NC(=O)[C@H](Cc3cnc[nH]3)NC(=O)[C@@H](Cc3ccccc3)NC(=O)[C@H]([C@@H](C)CC)NC(=O)[C@@H](CCCN)NC2=O)[C@@H](C)CC)CS1 [Bacitracin]
Conditions | Bliss interaction score | fitness
B. subtilis 168, main component drawn | -0.101 | –
S. aureus DSM 20231 [4], main component drawn | -0.0167 | –
S. aureus Newman [5], main component drawn | 0.0659 | –
S. aureus Newman [6], first compound 0.0625 µg/mL | – | 0.0143
S. aureus Newman [6], first compound 0.125 µg/mL | – | 0.0081
S. aureus Newman [6], first compound 0.25 µg/mL | – | 0.0047
S. pneumoniae D39V [3], main component drawn | 0.104 | –

CO/N=C(\C(=O)N[C@@H]1C(=O)N2C(C(=O)[O-])=C(C[N+]3(C)CCCC3)CS[C@H]12)c1csc(N)n1 [Cefepime] + CC(=O)NC[C@H]1CN(c2ccc(N3CCOCC3)c(F)c2)C(=O)O1 [Linezolid]
Conditions | fitness
S. aureus DSM 20231 [2], first compound 0.125 µg/mL, partner 0.125 µg/mL | 0.843
S. aureus DSM 20231 [2], first compound 0.125 µg/mL, partner 0.25 µg/mL | 0.625
S. aureus DSM 20231 [2], first compound 0.125 µg/mL, partner 0.5 µg/mL | 0.287
S. aureus DSM 20231 [2], first compound 0.25 µg/mL, partner 0.125 µg/mL | 0.956
S. aureus DSM 20231 [2], first compound 0.25 µg/mL, partner 0.25 µg/mL | 0.655
S. aureus DSM 20231 [2], first compound 0.25 µg/mL, partner 0.5 µg/mL | 0.375
S. aureus DSM 20231 [2], first compound 0.5 µg/mL, partner 0.125 µg/mL | 0.903
S. aureus DSM 20231 [2], first compound 0.5 µg/mL, partner 0.25 µg/mL | 0.669
S. aureus DSM 20231 [2], first compound 0.5 µg/mL, partner 0.5 µg/mL | 0.322
S. pneumoniae D39V [1], first compound 0.007 µg/mL, partner 0.2 µg/mL | 0.827
S. pneumoniae D39V [1], first compound 0.007 µg/mL, partner 0.4 µg/mL | 0.567
S. pneumoniae D39V [1], first compound 0.007 µg/mL, partner 0.8 µg/mL | 0.253
S. pneumoniae D39V [1], first compound 0.0078 µg/mL, partner 0.105 µg/mL | 0.934
S. pneumoniae D39V [1], first compound 0.0078 µg/mL, partner 0.21 µg/mL | 0.825
S. pneumoniae D39V [1], first compound 0.0078 µg/mL, partner 0.42 µg/mL | 0.692
S. pneumoniae D39V [1], first compound 0.014 µg/mL, partner 0.2 µg/mL | 0.797
S. pneumoniae D39V [1], first compound 0.014 µg/mL, partner 0.4 µg/mL | 0.573
S. pneumoniae D39V [1], first compound 0.014 µg/mL, partner 0.8 µg/mL | 0.259
S. pneumoniae D39V [1], first compound 0.0155 µg/mL, partner 0.105 µg/mL | 0.912
S. pneumoniae D39V [1], first compound 0.0155 µg/mL, partner 0.21 µg/mL | 0.796
S. pneumoniae D39V [1], first compound 0.0155 µg/mL, partner 0.42 µg/mL | 0.608
S. pneumoniae D39V [1], first compound 0.028 µg/mL, partner 0.2 µg/mL | 0.751
S. pneumoniae D39V [1], first compound 0.028 µg/mL, partner 0.4 µg/mL | 0.512
S. pneumoniae D39V [1], first compound 0.028 µg/mL, partner 0.8 µg/mL | 0.244
S. pneumoniae D39V [1], first compound 0.031 µg/mL, partner 0.105 µg/mL | 0.645
S. pneumoniae D39V [1], first compound 0.031 µg/mL, partner 0.21 µg/mL | 0.504
S. pneumoniae D39V [1], first compound 0.031 µg/mL, partner 0.42 µg/mL | 0.258

S. aureus DSM 20231 [2], partner 1 µg/mL, one replicate
Conditions | fitness
first compound 0.125 µg/mL | 0.0467
first compound 0.25 µg/mL | 0.0593
first compound 0.5 µg/mL | 0.052

Conditions | Bliss interaction score
B. subtilis 168 | 0.0847
S. aureus DSM 20231 [4] | 0.11
S. aureus Newman [5] | 0.0424
S. pneumoniae D39V [3] | 0.165

— the supplement of paper PMC10627819
